Results on four compounds are retold here after patent US4001218A, “Penicillins” (Bayer Aktiengesellschaft, priority 1972, dated 1977).

Assay [1] has as its system Psdm. aerug. F 41. The assay can be described thus: animal experiment, Psdm. aerug. F 41 infection. The following applies: s.c. 4 × 3000 Units per animal.
The subject of the next assay is Klebsiella 62. The assay can be described thus: animal experiment, Klebsiella 62 infection. Particulars: s.c. 2 × 3000 Units per animal, experiment with Ex.1.
Assay [2] has as its system Klebsiella 63. As to the kind of experiment: animal experiment, Klebsiella 63 infection. The following applies: s.c. 2 × 3000 Units per animal.
Assay [3] deals with Pasteurella pseudotuberculosis. The format is cell-based. The following applies: 100 μg/ml, 24 hours.
The test system of a further assay is Psdm. aerug. Walter. The assay can be described thus: MIC, test tube series dilution test, Psdm. aerug. Walter. Particulars: Psdm. aerug. Walter; 24 hours, 37°C. The format is cell-based, Pseudomonas aeruginosa.
The test system of assay [4] is Proteus, indole-positive, sp. The assay can be described thus: turbidity test at 100 μg/ml. The format is cell-based. The following applies: 24 hours.
A further assay concerns Staph. aureus 1756. The assay can be described thus: MIC, test tube series dilution test, Staph. aureus 1756. The format is cell-based, Staphylococcus aureus. Particulars: Staph. aureus 1756; 24 hours, 37°C.
In the next assay the test system is E. coli C 165. The assay can be described thus: MIC, test tube series dilution test, E. coli C 165. The format is cell-based. The following applies: 24 hours, 37°C.
A further assay has as its system Streptococcus pyogenes W. The assay can be described thus: turbidity test at 100 μg/ml. The format is cell-based. Particulars: 24 hours.
The subject of assay [5] is Proteus, indole-negative, sp. As to the kind of experiment: turbidity test at 100 μg/ml. The format is cell-based. Particulars: 24 hours.
For another assay, the system named is Haemophilus influenzae. As to the kind of experiment: turbidity test at 100 μg/ml. The format is cell-based. Particulars: 24 hours.
In the next assay the test system is Enterococcus 9790. The assay can be described thus: MIC, test tube series dilution test, Enterococcus 9790. Particulars: 24 hours, 37°C. The format is cell-based.
The test system of another assay is Staph. aureus 133. The format is cell-based, Staphylococcus aureus. Particulars: Staph. aureus 133; 24 hours, 37°C.
A further assay deals with E. coli A 261. The assay can be described thus: MIC, test tube series dilution test, E. coli A 261. Particulars: 24 hours, 37°C. The format is cell-based.
In another assay the test system is Brucella sp. The format is cell-based. The following applies: 100 μg/ml, 24 hours.
In the next assay the test system is Salmonella sp. As to the kind of experiment: turbidity test at 100 μg/ml. The format is cell-based.
The next assay has as its system Bacteroides sp. As to the kind of experiment: turbidity test at 100 μg/ml. The format is cell-based. Particulars: 24 hours.
In assay [6] the test system is Klebsiella 63. The assay can be described thus: turbidity test at 100 μg/ml. The format is cell-based. The following applies: 24 hours.
Assay [7] deals with Diplococcus pneumoniae sp. The assay can be described thus: turbidity test at 100 μg/ml. Particulars: 24 hours. The format is cell-based.
The subject of another assay is Enterococcus sp. As to the kind of experiment: turbidity test at 100 μg/ml. The format is cell-based. The following applies: 24 hours.
A further assay deals with Clostridium tetani. The format is cell-based. Particulars: 100 μg/ml, 24 hours.
The subject of assay [8] is Klebsiella K 10. The assay can be described thus: MIC, test tube series dilution test, Klebsiella K 10. The following applies: 24 hours, 37°C. The format is cell-based.
The subject of the next assay is Proteus vulgaris 1017. As to the kind of experiment: turbidity test at 100 μg/ml. The following applies: 24 hours. The format is cell-based.
For assay [9], the system named is Klebsiella K 10. As to the kind of experiment: turbidity test at 100 μg/ml. The format is cell-based. The following applies: 24 hours.
A further assay deals with E. Coli c165. The assay can be described thus: turbidity test at 100 μg/ml. The format is cell-based. Particulars: 24 hours.
Assay [10] concerns Bordetella bronchiseptica. The assay can be described thus: turbidity test at 100 μg/ml. The format is cell-based. The following applies: 24 hours.
For assay [11], the system named is Staphylococcus aureus 133. As to the kind of experiment: turbidity test at 100 μg/ml. The format is cell-based. The following applies: 24 hours.
Another assay concerns Aeromonas hydrophila sp. As to the kind of experiment: turbidity test at 100 μg/ml. The format is cell-based. Particulars: 24 hours.
In another assay the test system is Lactobacillus sp. The assay can be described thus: turbidity test at 100 μg/ml. The format is cell-based. The following applies: 24 hours.
In assay [12] the test system is Corynebacterium pyogenes M. As to the kind of experiment: turbidity test at 100 μg/ml. The following applies: 24 hours. The format is cell-based.
For assay [13], the system named is Klebsiella 63. As to the kind of experiment: MIC, test tube series dilution test, Klebsiella 63. The format is cell-based. Particulars: Klebsiella 63; 24 hours, 37°C.
Assay [14] has as its system Neisseria cartarrhalis sp. As to the kind of experiment: turbidity test at 100 μg/ml. The format is cell-based. The following applies: 24 hours.
A further assay has as its system Borrelia sp. The assay can be described thus: turbidity test at 100 μg/ml. The format is cell-based. The following applies: 24 hours.
Assay [15] has as its system E. coli 14. The format is cell-based. Particulars: E. coli 14; 24 hours, 37°C.
A further assay concerns Enterobacter sp. As to the kind of experiment: turbidity test at 100 μg/ml. The following applies: 24 hours. The format is cell-based.
Assay [16] relates to Psdm. aerug. F 41. As to the kind of experiment: MIC, test tube series dilution test, Psdm. aerug. F 41. The format is cell-based, Pseudomonas aeruginosa. The following applies: Psdm. aerug. F 41; 24 hours, 37°C.
Another assay concerns Proteus vulg. 1017. The format is cell-based, Proteus vulgaris. The following applies: Proteus 1017; 24 hours, 37°C.
Another assay has as its system Clostridium botulinium. The format is cell-based.
For assay [17], the system named is E. coli 14. The assay can be described thus: turbidity test at 100 μg/ml. The format is cell-based. The following applies: 24 hours.
Assay [18] deals with Corynebacterium diphteriae gravis. The assay can be described thus: turbidity test at 100 μg/ml. Particulars: 24 hours. The format is cell-based.
The test system of the next assay is Serratia sp. The assay can be described thus: turbidity test at 100 μg/ml. The format is cell-based. The following applies: 24 hours.
The test system of another assay is Shigella sp. The assay can be described thus: turbidity test at 100 μg/ml. The format is cell-based.
In assay [19] the test system is Pseudomonas aeruginosa sp. As to the kind of experiment: turbidity test at 100 μg/ml. Particulars: 24 hours. The format is cell-based.
The next assay relates to Proteus morg. 932. The assay can be described thus: MIC, test tube series dilution test, Proteus morg. 932. Particulars: 24 hours, 37°C. The format is cell-based.
The next assay relates to E. coli 183/58. The assay can be described thus: MIC, test tube series dilution test, E. coli 183/58. The format is cell-based. The following applies: 24 hours, 37°C.
Where [20] appears, read: 1st day after infection, experiment with Ex.41.
Setting [21] is: 1st day after infection, experiment with Ex.7.

With `CC1(C)S[C@@H]2[C@H](NC(=O)C(C(=O)O)c3ccccc3)C(=O)N2[C@H]1C(=O)O` (stereo partly drawn) [Carbenicillin, reference compound], the Surviving animals in the assay on Psdm. aerug. F 41 [1] (1st day after infection, experiment with Ex.22) came to 50%; in the assay on Psdm. aerug. F 41 [1] (1st day after infection, experiment with Ex.29), 80%; in the assay on Psdm. aerug. F 41 [1] (2nd day after infection, experiment with Ex.22), 0%; with Psdm. aerug. F 41 [1] (2nd day after infection, experiment with Ex.29), 30%; with Psdm. aerug. F 41 [1] (3rd day after infection, experiment with Ex.29) it was 30%; with Psdm. aerug. F 41 [1] (5th day after infection, experiment with Ex.29), 20%. The Surviving animals in the assay with Klebsiella 62 (1st day after infection), in the assay with Klebsiella 63 [2] (setting [20]) and in the assay with Klebsiella 63 [2] (setting [21]) was 0% each time.
Consider `CC1(C)S[C@@H]2[C@H](NC(=O)[C@H](NC(=O)c3ccc(NC(=O)C4CC4)cc3)c3ccccc3)C(=O)N2[C@H]1C(=O)O` [Example 1, sodium D(-)-α-(4-cyclopropanecarbonylamino-benzoylamino)-benzylpenicillin], for which the degree of turbidity entry (in assay [3]; in assay [4]; with Streptococcus pyogenes W; in [5]; with Haemophilus influenzae; in the assay with Brucella sp.) was “non-turbid” throughout. Moreover, the degree of turbidity entry (in the assay with Salmonella sp.; with Bacteroides sp.; in the assay on Klebsiella 63 [6]; in assay [7]; in the assay on Enterococcus sp.; in the assay with Clostridium tetani) was “non-turbid” each time. In addition, the degree of turbidity result (in the assay on Proteus vulgaris 1017; in the assay on Klebsiella K 10 [9]; in the assay with E. Coli c165; in [10]; in assay [11]; with Aeromonas hydrophila sp.) was “non-turbid” throughout. Besides, the degree of turbidity entry (with Lactobacillus sp.; in [12]; in assay [14]; in the assay with Borrelia sp.; with Enterobacter sp.; in the assay on Clostridium botulinium) was “non-turbid” in each case. Also, the degree of turbidity result (with E. coli 14 [17]; in assay [18]; with Serratia sp.; in the assay on Shigella sp.; in [19]) was “non-turbid” in each case. Besides, the MIC was 16 U/ml in the assay on Psdm. aerug. Walter; 64 U/ml against Staph. aureus 1756; 16 U/ml with E. coli C 165; ~ 8 U/ml in the assay with Enterococcus 9790; < 1 U/ml with Staph. aureus 133; > 256 U/ml in the assay on E. coli A 261. In addition, the MIC against Klebsiella K 10 [8] is reported as 64 U/ml; against Klebsiella 63 [13] it was 64 U/ml; in the assay with E. coli 14 [15], 4 U/ml; in the assay with Psdm. aerug. F 41 [16] it was 32 U/ml; in the assay on Proteus vulg. 1017, < 32 U/ml; with Proteus morg. 932, 8 U/ml. In the assay on E. coli 183/58, the MIC is 16 U/ml. In addition, the Surviving animals with Klebsiella 62 (1st day after infection) was determined as 100%; in the assay on Klebsiella 62 (2nd day after infection), 100%; in the assay on Klebsiella 62 (3rd day after infection), 50%; with Klebsiella 62 (5th day after infection), 50%.
As to `CC1(C)S[C@@H]2[C@H](NC(=O)[C@H](NC(=O)c3ccc(NC(=O)C4CCCC4)cc3)c3ccccc3)C(=O)N2[C@H]1C(=O)O` [Example 7, sodium D(-)-α-(4-cyclopentanecarbonylamino-benzoylamino)-benzylpenicillin], the MIC with Psdm. aerug. Walter was 32 U/ml; with Staph. aureus 1756, 64 U/ml; in the assay with E. coli C 165, 8 U/ml; against Enterococcus 9790 it was 8 U/ml; against Staph. aureus 133 it was < 1 U/ml; against E. coli A 261 it was > 256 U/ml. Moreover, the MIC in the assay with Klebsiella K 10 [8] is 32 U/ml; against Klebsiella 63 [13], 32 U/ml; with E. coli 14 [15], < 1 U/ml; against Psdm. aerug. F 41 [16], 32 U/ml; against Proteus vulg. 1017, 32 U/ml; against Proteus morg. 932 it was 256 U/ml. For the same compound, the MIC in the assay on E. coli 183/58 turned out to be 8 U/ml. In addition, the Surviving animals in the assay on Klebsiella 63 [2] (setting [21]) is on record as 100%; in the assay on Klebsiella 63 [2] (2nd day after infection, experiment with Ex.7), 100%; in the assay on Klebsiella 63 [2] (3rd day after infection, experiment with Ex.7), 20%.
In the case of `CC1(C)S[C@@H]2[C@H](NC(=O)[C@H](NC(=O)c3ccc(NC=O)cc3)c3ccccc3)C(=O)N2[C@H]1C(=O)O` [Example 41, Sodium D(-)-α -(4-formylamino-benzoylamino)-benzylpenicillin], the MIC with Psdm. aerug. Walter is 64 U/ml; against Staph. aureus 1756 it was 32 U/ml; against E. coli C 165, 32 U/ml; with Enterococcus 9790 it was 8 U/ml; against Staph. aureus 133 it was < 1 U/ml; against E. coli A 261, > 256 U/ml. Also, the MIC was found to be 128 U/ml in the assay with Klebsiella K 10 [8]; 128 U/ml in the assay with Klebsiella 63 [13]; 8 U/ml against E. coli 14 [15]; 32 U/ml against Psdm. aerug. F 41 [16]; 64 U/ml with Proteus vulg. 1017; 64 U/ml against E. coli 183/58. The Surviving animals came to 80% with Klebsiella 63 [2] (setting [20]); 50% with Klebsiella 63 [2] (2nd day after infection, experiment with Ex.41); 50% in the assay with Klebsiella 63 [2] (3rd day after infection, experiment with Ex.41); 50% with Klebsiella 63 [2] (5th day after infection, experiment with Ex.41).
